The values below come from patent US20250205157A1, “TOPICAL RUXOLITINIB FOAM” (Incyte Corporation, priority 2023, published 2025).

Series [1] can be described thus: Chemical stability of foam formulations by HPLC (assay % LC, total impurities). Type of series: physicochemical. The settings on record: for chemical stability, in words: to 3 months, 25° C./60% RH and 40° C./75% RH. From the text: The protocol used for determining the purity was a liquid chromatography (LC) method. The LC method is provided below.
This method is for the determination of Ruxolitinib Phosphate in foam formulations that contain Ruxolitinib Phosphate as active pharmaceutical ingredient (API). The method is suitable for the determination of active content in stability screening samples. The method can also be used to estimate the level of major degradants of Ruxolitinib Phosphate.
Foam formulations contain about 0.5% Ruxolitinib base (API added as Ruxolitinib Phosphate)
Weigh accurately about 500 mg of sample into a tared 25 mL volumetric flask.
Equilibrate the chromatographic system with starting mobile phase composition until a stable baseline is obtained. The following gradient (Table 12) at a flow rate of 1.0-1.5 mL/min is used: […]
Using the instrument conditions, equilibrate the chromatographic system with mobile phase. Record the chromatograms of Ruxolitinib Phosphate peak for the standard and sample solutions. The retention time of principal peak in the HPLC chromatogram of the sample should correspond with the retention time of the principal peak produced by Ruxolitinib Phosphate Standard Solution. The retention time difference between sample and standard should not be more than 5%.

The nature of series [2]: Microscopic examination of the foam samples (drug recrystallisation). Type of series: physicochemical.
The next series has as its system alopecia. To be noted: 8 mg and 12 mg BID orally; cited from earlier work.
Series [3] is described as follows: Minipig plasma concentrations / toxicokinetic evaluation after topical foam. The settings on record: topical application of foam formulations.
Series [4] in a line: Solubility of ruxolitinib phosphate in organic media. Type of series: physicochemical. The settings on record: for Reported Solubility % w/w, ruxolitinib phosphate: ambient temperature. The method, then: Under pre-formulation studies, the solubility of ruxolitinib phosphate was evaluated in organic media over the course of three days at ambient temperature.
Series [5] in a line: Solubility of ruxolitinib phosphate in ethanol-water solutions and hydroethanolic foamable carrier components. The format is physicochemical. Here is the method: Based on the good solubility of ruxolitinib phosphate in hydroethanolic mixtures, the solubility of ruxolitinib phosphate in a hydroethanolic base formulation was studied. Utilizing Method A (Materials and Methods), the formulations in Table 23 were prepared. […] PG was added as a penetration enhancer to facilitate better skin permeation of the API from application of the foam.

The mark [6] stands for this setting: 1,3-Dimethyl-2-Imadolidinone (DMI) (neat).
The mark [7] stands for this setting: Isopropyl Myristate (IPM) (neat).

`[2H]C1([2H])C([C@@H](CC#N)n2cc(-c3ncnc4[nH]ccc34)cn2)C([2H])([2H])C([2H])([2H])C1([2H])[2H]` [Deuruxolitinib, (3R)-3-(2,2,3,3,4,4,5,5-D8) cyclopentyl-3-[4-(7H-pyrrolo[2,3-d]pyrimidin-4-yl)-1H-pyrazol-1-yl]propanenitrile] registered an impurities in series [1] (3-months, 25° C. and 40° C., method detection limit) of less than 0.05 % area. For the same compound, in series [1], the “chemical stability, in words” value is recorded as “chemically stable”. Besides, in series [2], the “drug recrystallisation / solubility in the foam” value was “remained soluble in the foam formulation”. For the same compound, the clinical endpoint result in the series on alopecia is “met the clinical endpoint”. Besides, the “systemic exposure (plasma concentrations)” value in series [3] is given as “did not indicate therapeutic relevant concentrations”.

Take `N#CC[C@H](C1CCCC1)n1cc(-c2ncnc3[nH]ccc23)cn1` [Ruxolitinib phosphate]: the “Calculated Solubility, % w/w in base form” value (shortened to “Calculated Solubility, % w/w”) is given as 0.168 % w/w in series [4] (setting [6]); 0.028 % w/w in series [4] (Castor Oil (neat)); less than 0.01 % w/w in series [4] (DIPA (neat)); less than 0.01 % w/w in series [4] (Ethyl Oleate (neat)); 0.729 % w/w in series [4] (Etocas 35 (neat)); 0.015 % w/w in series [4] (GTCC (neat)). Further, the “Calculated Solubility, % w/w” value in series [4] (setting [7]) is less than 0.01 % w/w; in series [4] (Light Mineral Oil (LMO) (neat)), less than 0.01 % w/w; in series [4] (Octadodecabol (ODD) (neat)), 0.022 % w/w; in series [4] (Oleth-3 (neat)), 0.513 % w/w; in series [4] (Oleyl alcohol (neat)), 0.052 % w/w; in series [4] (PEG 300 (neat)), 1.169 % w/w. The “Calculated Solubility, % w/w” value in series [4] (PEG400 (neat)) is 0.846 % w/w; in series [4] (Polysorabte 80 (neat)), 0.920 % w/w; in series [4] (Polysorbate 20 (neat)), 0.957 % w/w; in series [4] (Propylene Glycol (PG) (neat)) it was 1.651 % w/w; in series [4] (Span 20 (neat)), 0.877 % w/w; in series [4] (Transcutol-P (neat)) it was 0.927 % w/w. Moreover, the “Reported Solubility % w/w, ruxolitinib phosphate” value (“Reported Solubility % w/w” below) is 0.22 % w/w in series [4] (setting [6]); 0.037 % w/w in series [4] (Castor Oil (neat)); less than 0.01 % w/w in series [4] (DIPA (neat)); less than 0.01 % w/w in series [4] (Ethyl Oleate (neat)); 0.962 % w/w in series [4] (Etocas 35 (neat)); 0.02 % w/w in series [4] (GTCC (neat)). Besides, the “Reported Solubility % w/w” value in series [4] (setting [7]) is given as less than 0.01 % w/w; in series [4] (Light Mineral Oil (LMO) (neat)), less than 0.01 % w/w; in series [4] (Octadodecabol (ODD) (neat)) it was 0.029 % w/w; in series [4] (Oleth-3 (neat)), 0.677 % w/w; in series [4] (Oleyl alcohol (neat), no propellant), 0.068 % w/w; in series [4] (PEG 300 (neat)) it was 1.543 % w/w. In addition, the “Reported Solubility % w/w” value in series [4] (PEG400 (neat)) worked out at 1.117 % w/w; in series [4] (Polysorabte 80 (neat)) it was 1.214 % w/w; in series [4] (Polysorbate 20 (neat)), 1.263 % w/w; in series [4] (Propylene Glycol (PG) (neat)) it was 2.179 % w/w; in series [4] (Span 20 (neat)), 1.157 % w/w; in series [4] (Transcutol-P (neat)), 1.223 % w/w. In addition, the “amount dissolved in hydroethanolic base” value in series [5] (base having 60% ethanol with and without additional propylene glycol) is listed as “approximately 3 % (w/w) on a free base basis”. Further, in series [5] (mixtures of 60:40 or 40:60 ethanol:water), the “solubility (loading level) in ethanol:water” value is ~4 % on a free base basis (w/w).

As for `N#CC[C@H](C1CCCC1)n1cc(-c2ncnc3[nH]ccc23)cn1` [Ruxolitinib], the “chemical stability, in words” value in series [1] was “chemically stable”. In addition, the “systemic exposure (plasma concentrations)” value in series [3] is “did not indicate therapeutic relevant concentrations”.
